Results published in patent US20060093596A1, “Genomic approach to identification of novel broad-spectrum antimicrobial peptides from bony fish” (priority 2002, published 2006).
Where no end group is shown, it is not given here.

What was measured:
[1] = test system: Staphylococcus epidermidis C621 (clinical isolate)
Experimental: (§1) Most non-fish bacterial strains as well as Candida albicans were grown at 37° C. in Mueller-Hinton Broth (MHB; Difco Laboratories, Detroit), while the fish bacteria were maintained at 16° C. in Tryptic Soy Broth (TSB; Difco, 5g/l NaCl). All strains were stored at −70° C. until they were thawed for use and sub-cultured daily. The following strains, Pseudomonas aeruginosa K799 (parent of Z61), Pseudomonas aeruginosa Z61 (antibiotic supersusceptible), Salmonella typhimurium 14028s (parent of MS7953s), Salmonella typhimurium MS7953s (defensin supersusceptible), as well as Staphylococcus epidermidis (human clinical isolates) and methicillin-resistant Staphylococcus aureus (MRSA; isolated by Dr. A. Chow, University of British Columbia) have been kindly donated by Prof R. E. W. Hancock, University of British Columbia.
(§2) The activities of the antimicrobial peptides were determined as minimal inhibitory concentrations (MICs) using the microtitre broth dilution method of Amsterdam (Amsterdam, 1996), as modified by Wu and Hancock (1999). Serial dilutions of the peptide were made in water in 96-well polypropylene (Costar, Coming Incorporated, Coming, New York) microtiter plates. Bacteria or C. albicans were grown overnight to mid-logarithmic phase as described above, and diluted to give a final inoculum size of 10^6 cfu/ml. A suspension of bacteria or yeast was added to each well of a 96 well plate and incubated overnight at the appropriate temperature. […] Three repeats of each MIC determination were performed.

[2] = test system: Escherichia coli C786, CGSC4908; format: cell-based; details: lowest peptide concentration inhibiting growth by at least 50%; supplemented Mueller-Hinton broth
Experimental: All strains were stored at −70° C. until they were thawed for use and sub-cultured daily.
Escherichia coli strain CGSC 4908 (his-67, thyA43, pyr-37), auxotrophic for thymidine, uridine, and L-histidine (Cohen et al., 1963) was kindly supplied, free of charge, by the E.coli Genetic Stock Centre (Yale University, New Haven, Conn.). MHB supplemented with 5 mg/L thymidine, 10 mg/L uridine and 20 mg/L L-histidine (Sigma Chemical Co., St. Louis, Mo.), was used to grow E.coli CGSC 4908 unless otherwise specified.
The activities of the antimicrobial peptides were determined as minimal inhibitory concentrations (MICs) using the microtitre broth dilution method of Amsterdam (Amsterdam, 1996), as modified by Wu and Hancock (1999). Serial dilutions of the peptide were made in water in 96-well polypropylene (Costar, Coming Incorporated, Coming, New York) microtiter plates. Bacteria or C. albicans were grown overnight to mid-logarithmic phase as described above, and diluted to give a final inoculum size of 10^6 cfu/ml. A suspension of bacteria or yeast was added to each well of a 96 well plate and incubated overnight at the appropriate temperature. In the case of E. coli CGSC 4908, supplemented MHB was used. […] Three repeats of each MIC determination were performed.

[3] = test system: Salmonella enterica s. Typhimurium 14028S (C587); format: cell-based; details: lowest peptide concentration inhibiting growth by at least 50%; Mueller-Hinton broth
Experimental: as §1, §2

[4] = test system: Escherichia coli DC2 (C500, outer membrane-permeable mutant); format: cell-based; details: lowest peptide concentration inhibiting growth by at least 50%; Mueller-Hinton broth
Experimental: as §1, §2

[5] = test system: Pseudomonas aeruginosa Z61 (H188, supersusceptible strain); format: cell-based; details: lowest peptide concentration inhibiting growth by at least 50%; Mueller-Hinton broth
Experimental: as §1, §2

[6] = test system: methicillin-resistant Staphylococcus aureus (MRSA) C623, SAP017; details: methicillin-resistant C623, SAP017
Experimental: as §1, §2

[7] = test system: Escherichia coli UB1005 (C498); format: cell-based; details: lowest peptide concentration inhibiting growth by at least 50%; Mueller-Hinton broth
Experimental: as §1, §2

[8] = test system: Salmonella enterica s. Typhimurium MS4252S (C610, supersusceptible strain); format: cell-based; details: lowest peptide concentration inhibiting growth by at least 50%; Mueller-Hinton broth
Experimental: as §1, §2

[9] = test system: Aeromonas salmonicida 99-1, A449
Experimental: (§3) Most non-fish bacterial strains as well as Candida albicans were grown at 37° C. in Mueller-Hinton Broth (MHB; Difco Laboratories, Detroit), while the fish bacteria were maintained at 16° C. in Tryptic Soy Broth (TSB; Difco, 5g/l NaCl).
(§4) Two field isolates of the salmonid pathogen Aeromonas salmonicida are from the IMB strain collection.
as §2

[10] = test system: Pseudomonas aeruginosa K799 (H187); format: cell-based; details: lowest peptide concentration inhibiting growth by at least 50%; Mueller-Hinton broth
Experimental: as §1, §2

[11] = test system: Aeromonas salmonicida 97-4
Experimental: as §3, §4, §2

[12] = test system: Candida albicans C627, CALB105; details: C627, CALB105
Experimental: as §1, §2

[13] = test system: bacterial pathogens and C. albicans; assay: Spectrum of antimicrobial activity (MIC panel, overall); format: cell-based; details: summary of MIC results against bacteria and C. albicans
Experimental: Three repeats of each MIC determination were performed.
The minimal inhibitory concentrations of the chemically produced peptides against a wide range of baterial pathogens and C. albicans were determined and are shown in Table 9.

| Substance | Minimal inhibitory concentration, S. epi C621 [1] [µg/mL] | Minimal inhibitory concentration, E. coli C786 [2] [µg/mL] | Minimal inhibitory concentration, S. typh 14028s [3] [µg/mL] | Minimal inhibitory concentration, E. coli DC2 [4] [µg/mL] | Minimal inhibitory concentration, P. aeru Z61 [5] [µg/mL] | Minimal inhibitory concentration, MRSA C623 [6] [µg/mL] | Minimal inhibitory concentration, E. coli UB1005 [7] [µg/mL] | Minimal inhibitory concentration, S. typh MS4252s [8] [µg/mL] | Minimal inhibitory concentration, A. sal 99-1 [9] [µg/mL] | Minimal inhibitory concentration, P. aeru K799 [10] [µg/mL] | Minimal inhibitory concentration, A. sal 97-4 [11] [µg/mL] | Minimal inhibitory concentration, C. alb C627 [12] [µg/mL] | antimicrobial activity, overall (in words) [13] |
| --- | --- | --- | --- | --- | --- | --- | --- | --- | --- | --- | --- | --- | --- |
| GWGSIFKHGRHAAKHIGHAAVNHYL-NH2 [NRC-6] | >64 | 4 | 64 | 2 | 4 | 32 | 4 | 4 | 4 | 16 | 4 | 32 | – |
| AGWGSIFKHIFKAGKFIHGAIQAHND-NH2 [NRC-14] | 16 | 16 | >64 | 16 | 8 | 16 | 16 | 16 | 32 | 32 | 16 | >64 | – |
| WLRRIGKGVKIIGGAALDHL-NH2 [NRC-2] | >64 | 64 | >64 | 64 | 32 | >64 | 64 | 64 | >128 | 64 | 128 | >64 | only marginally active |
| GWKKWLRKGAKHLGQAAIKGLAS [NRC-17] | 32 | – | – | – | – | 16 | – | – | 2 | – | 1 | 8 | broad spectrum of antimicrobial activity |
| FLGALIKGAIHGGRFIHGMIQNHH-NH2 [NRC-5] | 32 | 64 | >64 | >64 | 32 | 32 | 64 | 64 | >64 | >64 | >64 | >64 | – |
| GWGSFFKKAAHVGKHVGKAALTHYL-NH2 [NRC-4] | 8 | 2 | 16 | 2 | 4 | 8 | 4 | 2 | 2 | 8 | 2 | 8 | – |
| FFRLLFHGVHHVGKIKPRA-NH2 [NRC-10] | 32 | 32 | >64 | 32 | 8 | 64 | 32 | 16 | >64 | 32 | 32 | >64 | poor or no observed activities |
| GWKSVFRKAKKVGKTVGGLALDHYL-NH2 [NRC-11] | 64 | 4 | 32 | 4 | 4 | >64 | 16 | 4 | 8 | 32 | 8 | 32 | broad spectrum of antimicrobial activity |
| GWKKWLRKGAKHLGQAAIK-NH2 [NRC-16] | 16 | 1 | 16 | 0.5 | 1 | 32 | 2 | 0.5 | 2 | 4 | 1 | 8 | broad spectrum of antimicrobial activity |
| FFRLLFHGVHHGGGYLNAA-NH2 [NRC-9] | >64 | 64 | >64 | >64 | 64 | >64 | >64 | 64 | >64 | >64 | >64 | >64 | poor or no observed activities |
| FLGLLFHGVHHVGKWIHGLIHGHH-NH2 [NRC-19] | 8 | 32 | 64 | 32 | 8 | 8 | 16 | 16 | 64 | 32 | >64 | 64 | – |
| GRRKRKWLRRIGKGVKIIGGAALDHL-NH2 [NRC-3] | 8 | 2 | 8 | 2 | 1 | 8 | 8 | 2 | 2 | 2 | 4 | 4 | – |
| GFLGILFHGVHHGRKKALHMNSERRS [NRC-20] | >64 | – | – | – | – | >64 | – | – | >64 | – | >64 | >64 | – |
| GWKKWFTKGERLSQRHFA [NRC-18] | >64 | – | – | – | – | >64 | – | – | >64 | – | 128 | >64 | – |
